Measured values: ChEMBL document CHEMBL1201862, “PubChem BioAssay data set” (2004)
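Results reflect a 48-hour exposure of cells in 96-well plates to compound at five concentrations. The concentration for 50% growth inhibition is given as GI50.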 Active and inactive are the calls of the source. Rule as the data show it: active = GI50 up to about 1.1 µM and inactive = higher.

Experiments:
Assay in all cases: inhibition of tumour cell growth, NCI panel, 48 h
HT-29 = test system: HT-29
UO-31 = test system: UO-31
U-251 = test system: U-251
OVCAR-8 = test system: OVCAR-8
RXF 393 = test system: RXF 393
HOP-62 = test system: HOP-62
SR = test system: SR
SK-OV-3 = test system: SK-OV-3
SNB-19 = test system: SNB-19
UACC-62 = test system: UACC-62
CCRF-CEM = test system: CCRF-CEM
SF-295 = test system: SF-295
M14 = test system: M14
SK-MEL-28 = test system: SK-MEL-28
K562 = test system: K562
OVCAR-3 = test system: OVCAR-3
HCC 2998 = test system: HCC 2998
OVCAR-5 = test system: OVCAR-5

Measured: GI50

O[C@]12c3ccccc3C1CCCC2N1CCOCC1 (some centres undefined)
inactive: HT-29 > 100 µM | UO-31 > 100 µM | U-251 > 100 µM | OVCAR-8 > 100 µM | RXF 393 > 100 µM | HOP-62 > 100 µM | SR > 10 µM | SK-OV-3 > 100 µM | SNB-19 > 100 µM | UACC-62 > 100 µM | CCRF-CEM > 100 µM | SF-295 > 100 µM | M14 > 100 µM | SK-MEL-28 > 100 µM | K562 > 100 µM

Cc1cc2oc(=O)[nH]c(=S)c2c(C)c1C
inactive: HT-29 > 100 µM | UO-31 > 100 µM | OVCAR-3 > 100 µM | U-251 > 100 µM | OVCAR-8 > 100 µM | HCC 2998 > 100 µM | RXF 393 > 100 µM | HOP-62 > 100 µM | SR > 100 µM | SK-OV-3 > 100 µM | SNB-19 > 100 µM | UACC-62 > 100 µM | CCRF-CEM > 100 µM | SF-295 > 100 µM | M14 > 100 µM | SK-MEL-28 > 100 µM | K562 > 100 µM

NS(=O)(=O)c1ccc(Nc2c3ccccc3nc3c(C(=O)N4CCN(CCO)CC4)cccc23)cc1
inactive: HT-29 71.8 µM | UO-31 > 100 µM | OVCAR-3 > 100 µM | U-251 > 100 µM | OVCAR-8 > 100 µM | HCC 2998 > 100 µM | RXF 393 > 100 µM | OVCAR-5 > 100 µM | HOP-62 > 100 µM | SR 74.1 µM | SK-OV-3 > 100 µM | SNB-19 > 100 µM | UACC-62 > 100 µM | CCRF-CEM 95.3 µM | SF-295 > 100 µM | M14 > 100 µM | SK-MEL-28 > 100 µM | K562 53.2 µM

C=C(C)C1Cc2c(cc(OC)c3c(=O)c4ccccc4n(C)c23)O1 (centres undefined)
inactive: HT-29 > 100 µM | UO-31 > 100 µM | OVCAR-3 > 100 µM | U-251 > 100 µM | OVCAR-8 > 100 µM | HCC 2998 > 100 µM | RXF 393 > 100 µM | OVCAR-5 > 100 µM | HOP-62 > 100 µM | SR > 100 µM | SK-OV-3 > 100 µM | SNB-19 > 100 µM | UACC-62 37.8 µM | CCRF-CEM > 100 µM | SF-295 > 100 µM | M14 > 100 µM | SK-MEL-28 49 µM | K562 57.5 µM

Cc1ccc(S(=O)(=O)NC(=O)NC23CC4CC(CC(F)(C4)C2)C3)cc1
inactive: HT-29 > 100 µM | UO-31 > 100 µM | OVCAR-3 > 100 µM | U-251 > 100 µM | OVCAR-8 > 100 µM | HCC 2998 > 100 µM | RXF 393 > 100 µM | OVCAR-5 > 100 µM | HOP-62 > 100 µM | SK-OV-3 > 100 µM | SNB-19 > 100 µM | UACC-62 > 100 µM | CCRF-CEM > 100 µM | M14 > 100 µM | SK-MEL-28 > 100 µM | K562 > 100 µM

O=C1[C@H]2ON(c3ccccc3)C(c3ccc(Cl)cc3Cl)[C@H]2C(=O)N1c1ccc(Cc2ccc(N3C(=O)[C@@H]4ON(c5ccccc5)C(c5ccc(Cl)cc5Cl)[C@@H]4C3=O)cc2)cc1 (some centres undefined)
inactive: HT-29 > 100 µM | UO-31 > 100 µM | OVCAR-3 > 100 µM | U-251 > 100 µM | OVCAR-8 > 100 µM | HCC 2998 > 100 µM | OVCAR-5 > 100 µM | HOP-62 > 100 µM | SR 44.1 µM | SK-OV-3 > 100 µM | SNB-19 > 100 µM | UACC-62 > 100 µM | CCRF-CEM > 100 µM | SF-295 > 100 µM | M14 19.6 µM | SK-MEL-28 > 100 µM | K562 > 100 µM

COc1cc(CC2c3cc(OC)c(OC)cc3CCN2C)ccc1O (centres undefined)
inactive: HT-29 > 100 µM | UO-31 > 100 µM | OVCAR-3 > 100 µM | U-251 > 100 µM | OVCAR-8 > 100 µM | HCC 2998 > 100 µM | OVCAR-5 > 100 µM | HOP-62 > 100 µM | SNB-19 > 100 µM | CCRF-CEM > 100 µM | SF-295 > 100 µM | M14 > 100 µM | SK-MEL-28 > 100 µM | K562 > 100 µM

CN(CCc1ccccn1)/[N+]([O-])=N/O.CNCCc1ccccn1
inactive: HT-29 > 100 µM | UO-31 > 100 µM | OVCAR-3 > 100 µM | OVCAR-8 > 100 µM | HCC 2998 > 100 µM | RXF 393 > 100 µM | OVCAR-5 > 100 µM | HOP-62 > 100 µM | SR > 100 µM | SNB-19 > 100 µM | UACC-62 > 100 µM | CCRF-CEM > 100 µM | SF-295 > 100 µM | M14 > 100 µM | SK-MEL-28 > 100 µM | K562 > 100 µM

CSc1n[n+]2c(s1)SCCC2
inactive: HT-29 > 100 µM | UO-31 19.8 µM | OVCAR-3 > 100 µM | U-251 > 100 µM | OVCAR-8 > 100 µM | HCC 2998 > 100 µM | RXF 393 > 100 µM | OVCAR-5 > 100 µM | HOP-62 95.5 µM | SR > 100 µM | SNB-19 > 100 µM | UACC-62 > 100 µM | CCRF-CEM > 100 µM | SF-295 > 100 µM | M14 > 100 µM | SK-MEL-28 > 100 µM | K562 > 100 µM

CC(=O)COC(=O)CC(C)=O
inactive: HT-29 > 100 µM | UO-31 > 100 µM | OVCAR-3 > 100 µM | U-251 > 100 µM | OVCAR-8 > 100 µM | HCC 2998 > 100 µM | RXF 393 > 100 µM | OVCAR-5 > 100 µM | HOP-62 > 100 µM | SR > 100 µM | SK-OV-3 > 100 µM | SNB-19 > 100 µM | UACC-62 > 100 µM | CCRF-CEM > 100 µM | SF-295 > 100 µM | M14 > 100 µM | SK-MEL-28 > 100 µM | K562 > 100 µM

CCCCCCCCCCSC(=O)NC
inactive: HT-29 29.7 µM | UO-31 23.4 µM | OVCAR-3 54.2 µM | U-251 25.8 µM | OVCAR-8 28 µM | HCC 2998 47.2 µM | RXF 393 19.9 µM | OVCAR-5 80.9 µM | SK-OV-3 > 100 µM | SNB-19 28.8 µM | UACC-62 35.5 µM | CCRF-CEM 18.9 µM | SF-295 50.1 µM | M14 22.4 µM | SK-MEL-28 26.3 µM | K562 25.8 µM

COC(=O)C(C(=O)C(=O)Nc1ccc(OC)cc1[N+](=O)[O-])c1nc2cc(C)c(C)cc2nc1O (centres undefined)
inactive: HT-29 > 100 µM | UO-31 > 100 µM | OVCAR-3 > 100 µM | U-251 > 100 µM | OVCAR-8 > 100 µM | HCC 2998 > 100 µM | RXF 393 > 100 µM | HOP-62 > 100 µM | SR > 100 µM | SK-OV-3 > 100 µM | SNB-19 > 100 µM | UACC-62 > 100 µM | CCRF-CEM > 100 µM | SF-295 > 100 µM | M14 > 100 µM | SK-MEL-28 > 100 µM | K562 31.6 µM
